From patent US8394785B2, “Methods for the treatment and amelioration of urticaria” (Jado Technologies GmbH, priority 2005, dated 2013)

System: primary human mast cells (human skin)
Assay: Histamine release assay, Substance P induced, primary human mast cells
Format: cell-based
Conditions: dose-dependent; not dependent on pre-incubation time
Protocol: Tissue mast cells were isolated from human skin obtained during cosmetic surgery. Use of human skin was conducted according to the Declaration of Helsinki Principles and was approved by the Institutional Review Board of the Charité—Universitätsmedizin Berlin. For isolation of mast cells, the epidermis was enzymatically detached by an overnight incubation at 4° C. with dispase at a concentration of 1 mg/ml. The remaining dermis was dispersed by incubation with a mix of collagenase I and hyaluronidase for 1 h at 37° C. Dispersion was repeated three times, and the collected cells were washed. […] The final mast cell purity was >90% as measured by Toluidin blue staining. The viability of mast cells was >95% as assessed by Trypan blue staining (Grützkau et al 2000, Artuc et al 2002). The quantification of histamine levels was achieved using an automated histamine-analyser system (Firm Borgwelt Technik). The wavelength of the excitation was 355-360 nm and the emission wavelength of fluorescence measurement was 450-460 nm. The intensity of fluorescence was directly proportional to the concentration of histamine in the samples. The amount of released histamine was calculated according to the following formula: net histamine release=(release−blank)×(100/complete). […]

CCCCCCCCCCCCCCCCOP(=O)([O-])OCC[N+](C)(C)C [Compound 3, 1-hexadecylphosphoryl-choline]
inhibition of Substance P induced histamine release: 45%
